Here are results for 6 substances from article PMC3511524, “Ant Trail Pheromone Biosynthesis Is Triggered by a Neuropeptide Hormone” (PLoS ONE, 2012).

Where two headings read alike, the source gives them in different places. Ends that are not written are not given here.

In the assay the target is T1, SolinPBAN-R (Solenopsis invicta, UniProt L0APC6).
T1 sequence (L0APC6 1-605): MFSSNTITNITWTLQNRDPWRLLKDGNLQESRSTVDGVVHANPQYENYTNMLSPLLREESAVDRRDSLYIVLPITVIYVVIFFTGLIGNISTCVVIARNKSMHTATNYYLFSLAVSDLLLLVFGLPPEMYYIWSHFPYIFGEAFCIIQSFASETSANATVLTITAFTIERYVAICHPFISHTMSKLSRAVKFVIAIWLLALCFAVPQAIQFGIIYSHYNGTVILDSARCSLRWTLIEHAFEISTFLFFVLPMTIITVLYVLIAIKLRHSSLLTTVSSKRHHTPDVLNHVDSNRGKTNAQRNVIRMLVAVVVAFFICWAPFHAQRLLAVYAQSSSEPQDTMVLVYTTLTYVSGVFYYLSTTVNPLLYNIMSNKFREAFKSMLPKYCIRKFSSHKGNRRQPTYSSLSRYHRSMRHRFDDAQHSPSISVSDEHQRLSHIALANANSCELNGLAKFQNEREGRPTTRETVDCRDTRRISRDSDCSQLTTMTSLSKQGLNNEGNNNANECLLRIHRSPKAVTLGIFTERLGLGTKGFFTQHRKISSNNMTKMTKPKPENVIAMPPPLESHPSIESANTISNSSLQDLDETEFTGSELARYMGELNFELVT
Kind of assay: SolinPBAN-R/peptide binding assay (calcium-based Fluo-4AM fluorescence in Sf9 cells expressing SolinPBAN-R). It is filed as cell-based. As to conditions: for EC50: SolinPBAN-R expressed in Sf9 cells, Fluo-4AM fluorescence relative to 1 µM ionomycin maximum, read-out: EC50 (half-maximal effective concentration), binding activity to SolinPBAN-R. The method, then: Poly(A) RNA was isolated from whole bodies and heads of S. invicta workers and mature female alates for synthesis cDNA as described previously. Synthesized cDNA was amplified with a degenerate primer set: 5′-[…]-3′ ([…]) and 5′-[…]-3′ ([…]) mostly conserved in TM2 and TM7 domains from insect PBAN-Rs [25]–[27]. PCR was performed for 35 cycles at 95°C for 30 s, 50°C for 30 s, and 72°C for 1 min. The PCR product was directly sequenced by Interdisciplinary Center for Biotechnology Research (ICBR, University of Florida), and then the sequence result was used to design further gene-specific primers to find 5′- and 3′- ends of the fire ant PBAN-R cDNA. 5′-RACE (GeneRacer kit, Invitrogen) was performed using primers 5′-[…]-3′ (from nucleotide 1106) and 5′-[…]-3′ (from nucleotide 588) by the 5′-RACE kit (Invitrogen). 3′-RACE was performed using primers 5′-[…] NTTYCA-3′ (from nucleotide 1199), 5′-[…] […]-3′ (from nucleotide 1336) and 5′-[…]-3′ (from nucleotide 1392). Then PCR products were inserted into a subcloning vector (TOPO-TA, Invitrogen) and confirmed the nucleotides by DNA sequence. Sequences of the receptor DNA and corresponding amino acids were analyzed by Genetyx software ver. 10 (Genetyx Corporation) and PredictProtein software. The ORF of PBAN-R cDNA was amplified using the sense primer of 5′- […] […]-3′ (from nucleotide 255 including the NotI site) and 5′-[…] […]-3′ (from nucleotide 2122 including the XbaI site). The PCR product was ligated into a pIBV5His vector (Invitrogen) for expression in Sf9 cells as described previously.
All peptides used in this study were synthesized or purchased from Sigma Genosys or Peninsula Laboratories. The preparation of cells, peptides, and Fluo-4AM with hymenopteran saline followed a previously described method. Cell fluorescence intensity in a 96-well cell-culture was measured using a plate reader (BMG's NovoStar) equipped with filters (excitation: 485 nm and emission: 520 nm), and one pipetter and two injectors. Fluorescence measurements from each well were taken every 10s. After 30s PBAN or FXPRL peptide (10 µL) was added by pipetter and fluorescent changes were measured for up to 3 min. Then, 1 µM ionomycin (5 µL) was added into the cells to obtain a maximum fluorescence reading. The effect of ligand-exposure was expressed relative to the maximum value obtained with ionomycin. Data were analyzed using Microsoft EXCEL as described previously and measured EC50 values of ligands were determined using GraphPad Prism 4.03 software.
The PBAN/pyrokinin family of peptides and their receptors are currently classified as PK1 or PK2. Diapause Hormone (DH) peptides and their receptors are classified as type PK1. PBAN and other PBAN family peptides, and their receptors are classified as type PK2 [12]. To verify our SolinPBAN-R assignment we determined binding affinities for a number of PK1 ( = DH type) and PK2 ( = PBAN type) neuropeptides to SolinPBAN-R (Table 1). We expressed SolinPBAN-R in Spodoptera frugiperda 9 (Sf9) insect cells, which enabled binding specificity studies by measurement of calcium-based fluorescence intensity (Fig. 3A and Table 1). […] The SolinPBAN/pyrokinin gene is expressed in all life stages in fire ant, from egg to adult; however, the disposition of the four SolinPBAN/pyrokinin peptides in each life stage, as well as the possibility of additional receptors is unknown and currently under investigation.

Regarding “LSDDMPATPADQEMYRQDPEQIDSRTKYFSPRL-NH2 [HelzePBAN]”, the EC50 (N≥4) was determined as 56 nM.
For the substance “GSGEDLSYGDAYEVDEDDHPLFVPRL-NH2 [SolinPBAN]”, the “EC50 value times less than HelzePBAN” value (18 nM vs. 56 nM, Sf9 cells expressing SolinPBAN-R) was 3 times. Moreover, the EC50 (N≥4) was 18 nM.
TGPSASSGLWFGPRL-NH2 [DromePK1]: the EC50 is > 1000 nM.
With SVPFKPRL-NH2 [DromePK2], the EC50 (N≥4) was determined as 163 nM.
For the substance “NDVKDGAASGAHSDRLGLWFGPRL-NH2 [HelzePGN24 (DH)]”, the EC50 was > 1000 nM.
In the case of TSQDIASGMWFGPRL-NH2 [SolinDH], the EC50 (N≥4) is 125 nM.
